Data set [1] deals with OVCAR-3 cell line. As to the kind of experiment: MTT cytotoxicity assay in OVCAR-3 ovarian cancer cells. The class given is cell-based, human. To be noted: for IC50: Homo sapiens, OVCAR-3, 72 h incubation, MTT, mean ± SEM of three experiments; for Fold increase in cytotoxicity compared with (±)-UB006: OVCAR-3, ratio of IC50 values. The protocol:
OVCAR-3 (human ovary carcinoma, ATC HTB-161, passage number 20) cells were cultured at 37 °C in a humidified atmosphere of 5% CO2 in Dulbecco’s Modified Eagle Medium containing 4.5 g/L of glucose and supplemented with glutamine, 10% heat-inactivated fetal bovine serum, 100 units/mL of penicillin, and […] of streptomycin. The culture was passaged twice a week through gentle trypsinization. Cells were seeded in 10 cm culture dishes and grown to confluence. An MTT cytotoxicity assay was performed to evaluate the cytotoxic effect of the compounds. A total of 2 × 10^3 cells/well were plated in 96-well plates in […] of culture medium. After 24 h, the medium was removed, and cells were incubated for 72 h in fresh medium with different concentrations (0.5–20 µM) of the different compounds. DMSO was used as a blank at a final concentration of 0.5%. The cells were then incubated for 3 h with […] of fresh medium and […] of MTT dissolved in phosphate-buffered saline to a final concentration of 5 mg/mL. Following treatment, the supernatants were carefully removed, and the MTT–formazan crystals were solubilized by adding […] of DMSO. The absorbance was measured at 570 nm.
Samples were incubated for 3 days with increasing concentrations of the different compounds, followed by an MTT assay to quantify cell survival.

Data set [2] can be described thus: Turbidimetry solubility assay. It is filed as physicochemical. To be noted: for solubility at 2 h: kinetic from dmso stock, 2 h at 37 °C, tested 25 μM–2 mM; for Solubility over tested concentrations: tested concentrations 25–2000 µM. The protocol: This effectively created two regression lines, with the intersection corresponding to the solubility of the compound.
The compounds were incubated for 2 h at 37 °C in a Thermoshaker (Biosan®, Riga, Latvia). Solubility was assessed through turbidimetry at 600 nm using Varioskan Lux® (Thermo Scientific®, Waltham, MA, USA). The approximate solubility was calculated by finding the intersection of the two regression lines formed before and after the curve tendency change due to precipitation of the compounds.

In data set [3] the target is T1, FAS (Rattus norvegicus, UniProt P12785).
T1 construct: Cytosolic hepatic extracts obtained from rat (210 µg) were preincubated at 30 °C for 30 min; from tissue; host or cells: rat liver (cytosolic, FAS-enriched hepatic extract)
T1 sequence (P12785 whole entry): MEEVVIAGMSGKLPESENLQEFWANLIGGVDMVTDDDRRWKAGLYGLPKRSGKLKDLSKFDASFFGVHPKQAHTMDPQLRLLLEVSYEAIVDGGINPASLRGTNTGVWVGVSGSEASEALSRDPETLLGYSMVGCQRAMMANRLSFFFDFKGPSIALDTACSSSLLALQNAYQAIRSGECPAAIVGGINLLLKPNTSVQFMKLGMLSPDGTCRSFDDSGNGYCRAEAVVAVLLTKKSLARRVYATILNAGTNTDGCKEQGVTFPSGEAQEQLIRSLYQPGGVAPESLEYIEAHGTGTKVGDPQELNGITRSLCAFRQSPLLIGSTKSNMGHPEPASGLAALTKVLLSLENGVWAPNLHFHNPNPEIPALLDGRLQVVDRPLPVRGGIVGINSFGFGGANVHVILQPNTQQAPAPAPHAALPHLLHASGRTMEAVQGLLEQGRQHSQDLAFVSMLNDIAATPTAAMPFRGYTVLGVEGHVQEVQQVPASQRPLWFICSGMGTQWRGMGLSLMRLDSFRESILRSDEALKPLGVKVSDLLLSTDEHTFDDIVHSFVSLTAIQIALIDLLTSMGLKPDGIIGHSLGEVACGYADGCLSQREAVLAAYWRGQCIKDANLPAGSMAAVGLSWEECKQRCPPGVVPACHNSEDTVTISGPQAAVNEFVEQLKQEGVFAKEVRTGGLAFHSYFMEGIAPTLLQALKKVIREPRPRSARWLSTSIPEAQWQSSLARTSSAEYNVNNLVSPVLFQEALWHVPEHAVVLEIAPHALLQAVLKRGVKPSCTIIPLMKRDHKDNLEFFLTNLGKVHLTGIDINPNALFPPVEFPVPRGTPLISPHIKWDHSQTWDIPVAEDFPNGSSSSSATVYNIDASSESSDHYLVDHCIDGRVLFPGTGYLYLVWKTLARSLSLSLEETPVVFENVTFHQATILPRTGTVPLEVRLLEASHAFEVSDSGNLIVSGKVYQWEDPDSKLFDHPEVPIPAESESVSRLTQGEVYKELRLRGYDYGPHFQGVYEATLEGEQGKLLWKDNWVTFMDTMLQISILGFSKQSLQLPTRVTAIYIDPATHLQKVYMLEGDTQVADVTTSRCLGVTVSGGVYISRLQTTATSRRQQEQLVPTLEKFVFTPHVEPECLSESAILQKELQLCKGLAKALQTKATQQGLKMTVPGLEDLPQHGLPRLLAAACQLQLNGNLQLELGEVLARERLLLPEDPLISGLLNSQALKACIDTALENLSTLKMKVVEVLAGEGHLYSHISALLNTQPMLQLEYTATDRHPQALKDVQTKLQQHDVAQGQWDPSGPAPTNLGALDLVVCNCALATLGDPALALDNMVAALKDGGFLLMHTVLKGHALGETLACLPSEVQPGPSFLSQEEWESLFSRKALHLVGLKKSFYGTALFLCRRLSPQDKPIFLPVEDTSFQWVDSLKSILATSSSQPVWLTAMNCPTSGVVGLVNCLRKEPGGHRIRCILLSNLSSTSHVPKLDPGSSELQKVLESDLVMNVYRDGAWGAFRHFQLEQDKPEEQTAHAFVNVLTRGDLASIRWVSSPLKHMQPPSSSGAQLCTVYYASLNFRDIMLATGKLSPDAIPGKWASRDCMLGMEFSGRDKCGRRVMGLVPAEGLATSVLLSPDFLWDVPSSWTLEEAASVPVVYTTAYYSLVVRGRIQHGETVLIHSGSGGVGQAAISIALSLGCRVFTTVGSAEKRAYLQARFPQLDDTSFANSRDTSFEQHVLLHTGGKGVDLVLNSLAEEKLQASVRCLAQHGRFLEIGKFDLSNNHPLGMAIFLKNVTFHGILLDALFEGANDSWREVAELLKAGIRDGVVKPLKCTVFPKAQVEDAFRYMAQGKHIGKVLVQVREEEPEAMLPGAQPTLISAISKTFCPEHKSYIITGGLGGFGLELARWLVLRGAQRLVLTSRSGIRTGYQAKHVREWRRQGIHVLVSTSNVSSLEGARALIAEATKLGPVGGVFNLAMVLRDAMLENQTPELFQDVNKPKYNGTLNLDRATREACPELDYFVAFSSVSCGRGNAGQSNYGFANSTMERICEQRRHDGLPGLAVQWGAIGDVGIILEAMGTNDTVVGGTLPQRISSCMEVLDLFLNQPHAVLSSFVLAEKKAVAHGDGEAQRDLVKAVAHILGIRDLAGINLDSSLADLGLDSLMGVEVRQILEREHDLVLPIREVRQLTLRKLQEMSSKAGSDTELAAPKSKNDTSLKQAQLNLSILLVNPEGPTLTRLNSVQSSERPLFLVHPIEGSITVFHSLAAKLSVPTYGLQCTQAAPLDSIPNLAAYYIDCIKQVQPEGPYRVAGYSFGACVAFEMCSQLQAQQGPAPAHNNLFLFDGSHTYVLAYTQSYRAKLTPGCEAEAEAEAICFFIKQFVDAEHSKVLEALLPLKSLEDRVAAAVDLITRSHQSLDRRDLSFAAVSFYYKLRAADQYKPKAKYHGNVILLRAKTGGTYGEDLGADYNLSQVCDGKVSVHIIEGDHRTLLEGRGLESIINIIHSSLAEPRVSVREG
As to the kind of experiment: Spectrophotometric FAS activity assay in rat liver extracts. As to conditions: rat liver extracts (210 µg), preincubated 30 min at 30 °C, mean ± SEM of three experiments. It is filed as biochemical. The protocol: For in vitro experiments, FAS was purified from rat liver following the protocol previously described by Linn. FAS activity was measured using a spectrophotometric method, as previously described. […] NADPH (121 µM) and acetyl-CoA (61 µM) in potassium phosphate buffer (pH 7.2) were added to preincubated enzyme and equilibrated at 37 °C for 3 min. The reaction was initiated through the addition of malonyl-CoA (55 µM). The total reaction volume was 330 µL. Oxidation of NADPH was measured at 340 nm at 37 °C for 10 min.
Figure 3 FAS activity assay in rat liver extracts. Representation of % of remaining FAS activity of spectrophotometric activity assay.

Data set [4] has as its target T1, FAS. Details: method as in PMID 23620264. To be noted: previously described by the group; read-out: IC50 (FAS inhibition); cited from earlier work.
Details of data set [5]: method as in earlier work. As to conditions: cited from earlier work.

Converted amounts (≈) assume the structure as drawn. Read-outs that look alike come from different tables or passages of the source.

By IC50 is commonly meant the concentration that inhibits the measured activity by half. In general, solubility refers to the dissolved amount per volume that the medium holds. `C=CC(O)[C@H]1C(=C)C(=O)O[C@H]1CCCCCCCC` (mixture of isomers) [(±)-UB034, (4RS,5SR)-4-(1-hydroxyallyl)-3-methylene-5-octyldihydrofuran-2(3H)-one] came in with a 50% inhibitory concentration (IC50) in data set [1] of 12.3 ± 1.2 µM. In data set [2] (water with 1% DMSO), this compound yielded a solubility at 2 h of 88 µM (≈ 23.4 µg/mL).
With `C=C1C(=O)O[C@@H](CCCCCCCC)[C@H]1C(O)C(O)CO` (mixture of isomers) [(±)-UB036, (4RS,5SR)-3-methylene-5-octyl-4-(1,2,3-trihydroxypropyl)dihydrofuran-2(3H)-one], the figures for the IC50 in data set [1] and in data set [3] were 5.5 ± 0.8 µM and 458 ± 54 µM, respectively. In addition, the solubility at 2 h in data set [2] (water with 1% DMSO) is above 2000 µM. For the same compound, the “Solubility over tested concentrations” value in data set [2] was “soluble at all tested concentrations”. In data set [2] (water with 1% DMSO), the “Fold increase in solubility compared with (±)-UB006” value was at least 4 fold.
As for `C=C1C(=O)O[C@@H](CCCCCCCC)[C@H]1[C@@H](O)CO` (racemic) [(±)-UB035, (4RS,5SR)-4-((RS)-1,2-dihydroxyethyl)-3-methylene-5-octyldihydrofuran-2(3H)-one], the IC50 in data set [1] stood at 2.1 ± 0.2 µM; in data set [3], 565 ± 62 µM. In addition, in data set [1], the “Fold increase in cytotoxicity compared with (±)-UB006” value was 2.5 fold. This compound also showed a solubility at 2 h in data set [2] (water with 1% DMSO) above 2000 µM. In addition, the “Solubility over tested concentrations” value in data set [2] is “soluble at all tested concentrations”.
In the case of `C=C1C(=O)O[C@@H](CCCCCCCC)[C@H]1C(C)O` (mixture of isomers) [(±)-UB031, (4RS,5SR)-4-(1-hydroxyethyl)-3-methylene-5-octyldihydrofuran-2(3H)-one], in data set [1], the IC50 is 3.6 ± 0.2 µM and the “Fold increase in cytotoxicity compared with (±)-UB006” value worked out at 1.4 fold. Further, the concentration in solution in data set [2] (water with 1% DMSO) (solubility at 2 h) came to 473 µM (≈ 120 µg/mL).
On to `C=C1C(=O)O[C@@H](CCCCCCCC)[C@@H]1CO` (racemic) [(±)-UB006, (4SR,5SR)-4-(hydroxymethyl)-3-methylene-5-octyldihydrofuran-2(3H)-one], for which the solubility at 2 h in data set [2] (water with 1% DMSO) was determined as 550 µM (≈ 132 µg/mL).
With `C=C1C(=O)O[C@@H](CCCCCCCC)[C@H]1C(O)CCCCCC` (mixture of isomers) [(±)-UB033, (4RS,5SR)-4-(1-hydroxyheptyl)-3-methylene-5-octyldihydrofuran-2(3H)-one], the IC50 in data set [1] came to 13.6 ± 1.3 µM. In data set [2] (water with 1% DMSO), the solubility at 2 h stood at 76 µM (≈ 24.7 µg/mL).
With `C=C1C(=O)O[C@@H](CCCCCCCC)[C@@H]1C(=O)O` (racemic) [(±)-C75], the IC50 in data set [4] is 460 ± 56 µM. For the same compound, the “Solubility in basic aqueous media” value in data set [5] (basic aqueous media) was below 0.1 mg/mL. In addition, the Solubility in water result in data set [5] (water) is “insoluble in water”.
`C=C1C(=O)O[C@@H](CCCCCCCC)[C@H]1C(O)CC` (mixture of isomers) [(±)-UB032, (4RS,5SR)-4-(1-hydroxypropyl)-3-methylene-5-octyldihydrofuran-2(3H)-one] returned an IC50 in data set [1] of 10.7 ± 0.9 µM. Besides, the concentration in solution in data set [2] (water with 1% DMSO) (solubility at 2 h) was 390 µM (≈ 105 µg/mL).
